The values below come from patent publication US9957254B2, “Cyclohexen-1-yl-pyridin-2-yl-1h-pyrazole-4-carboxylic acid derivatives and the use thereof as soluble guanylate cyclase activators” (Novartis AG, priority 2014, dated 2018).

This assay has as its target T1, soluble guanylate cyclase (Homo sapiens, UniProt Q02153).
T1 construct: expressed in transfected cells
Kind of assay: CHO cellular assay (cGMP production, Cisbio cGMP HTRF). To be noted: CHO K1 cells overexpressing human GUCYA3/GUCYB3 (clone 8E10), 1 mM IBMX, 20 uM ODQ, 1 h room temperature, listed 0.5 nM means actual EC50 ≤0.5 nM (quantification limit). Format: cell-based. The text has this: Chinese hamster ovary (CHO) cells overexpressing soluble guanylate cyclase were generated to test the effect of sGC activators in a cellular context. Human cDNAs for GUCYA3 (RefSeq: NM_000856.3) and GUCYB3 (RefSeq: NM_000857.1) were amplified by PCR from a HUVEC (Human Umbilical Vein Endothelial Cells) cDNA library and cloned into mammalian expression vectors. CHO K1 cells (ATCC CCL-61) were transfected using Lipofectamine 2000 following manufacturer's instructions and stably expressing clones were identified by antibiotic selection. CHO GUCY clone 8E10 was used for subsequent experiments.
Cells were seeded at a density of 3000 cells/well in white 384-well proxyplates (Perkin Elmer) and incubated overnight, then the medium was removed and cells were washed with assay buffer (HBSS, 0.1% BSA, 1 mM IBMX, 20 uM ODQ). sGC activators were serially diluted in DMSO, then diluted in assay buffer prior to adding to cells (10 ul/well, final DMSO concentration 0.5%). Cells were incubated with compounds for 1 h room temperature, then assayed for cGMP production using Cisbio cGMP HTRF kit (62GM2PEC) according to manufacturer's instructions.
The EC50s are calculated based on the amount of cGMP interpolated from the standard curve, using a 4-parameter sigmoidal dose-response.
Compounds of invention are active on sGC activation. Data on Table 1 collected using the assay of Biological Example 1. The minimum EC50 quantification limit of the assay is 0.5 nM, therefore any compound listed as having an EC50 value of 0.5 nM has a actual EC50 of ≤0.5 nM.
(Time-resolved FRET reads energy transfer from a long-lived donor to a nearby acceptor.)

Each structure is given as a SMILES string.

T1 sequence (Q02108 whole entry partner): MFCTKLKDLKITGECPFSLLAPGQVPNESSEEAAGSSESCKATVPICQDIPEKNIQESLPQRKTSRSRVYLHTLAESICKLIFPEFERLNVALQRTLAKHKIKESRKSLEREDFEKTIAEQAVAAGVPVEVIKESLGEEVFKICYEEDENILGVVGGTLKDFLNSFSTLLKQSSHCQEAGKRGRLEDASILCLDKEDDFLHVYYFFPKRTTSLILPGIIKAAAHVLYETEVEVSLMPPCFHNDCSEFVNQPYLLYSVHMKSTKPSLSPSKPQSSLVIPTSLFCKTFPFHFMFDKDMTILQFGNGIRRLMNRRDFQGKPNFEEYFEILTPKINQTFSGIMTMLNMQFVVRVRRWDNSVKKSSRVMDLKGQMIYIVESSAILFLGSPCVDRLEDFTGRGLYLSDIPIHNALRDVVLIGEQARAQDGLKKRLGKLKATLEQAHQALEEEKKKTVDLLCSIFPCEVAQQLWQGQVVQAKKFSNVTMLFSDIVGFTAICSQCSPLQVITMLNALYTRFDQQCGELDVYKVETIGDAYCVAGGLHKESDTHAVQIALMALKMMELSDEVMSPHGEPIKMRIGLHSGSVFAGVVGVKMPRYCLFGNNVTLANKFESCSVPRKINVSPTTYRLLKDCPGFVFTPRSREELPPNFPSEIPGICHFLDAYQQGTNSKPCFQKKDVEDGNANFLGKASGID
T1 sequence (Q02153 whole entry): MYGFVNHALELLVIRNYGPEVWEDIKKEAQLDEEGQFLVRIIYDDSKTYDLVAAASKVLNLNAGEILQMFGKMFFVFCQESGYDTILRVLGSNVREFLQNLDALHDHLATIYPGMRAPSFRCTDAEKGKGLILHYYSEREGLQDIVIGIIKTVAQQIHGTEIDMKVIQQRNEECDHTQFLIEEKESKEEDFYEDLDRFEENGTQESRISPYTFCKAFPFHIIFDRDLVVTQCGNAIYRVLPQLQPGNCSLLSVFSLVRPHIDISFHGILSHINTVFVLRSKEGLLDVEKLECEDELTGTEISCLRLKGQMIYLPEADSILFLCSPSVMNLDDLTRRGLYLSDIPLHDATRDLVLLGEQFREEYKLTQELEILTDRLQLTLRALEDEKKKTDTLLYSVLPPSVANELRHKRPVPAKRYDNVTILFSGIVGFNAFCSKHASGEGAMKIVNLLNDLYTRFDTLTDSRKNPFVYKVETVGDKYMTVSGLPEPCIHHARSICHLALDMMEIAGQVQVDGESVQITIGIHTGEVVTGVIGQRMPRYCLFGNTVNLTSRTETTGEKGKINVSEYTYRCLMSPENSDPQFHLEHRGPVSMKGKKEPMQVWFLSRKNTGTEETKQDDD

As usually defined, the EC50 is the concentration needed to bring the measured effect to its halfway point. The compound `Cc1cc(C2CCN(C(=O)C3CC3)CC2)ccc1OCC1=C(c2cccc(-n3ncc(C(=O)O)c3C(F)(F)F)c2)CC(C)CC1` (racemic) [Example 28, (±)-1-(6′-((4-(1-(Cyclopropanecarbonyl)piperidin-4-yl)-2-methylphenoxy)methyl)-3′-methyl-2′,3′,4′,5′-tetrahydro-[1,1-biphenyl]-3-yl)-5-(trifluoromethyl)-1H-pyrazole-4-carboxylic acid] showed an EC50 of 22 nM.

`Cc1cc(C2CCN(S(=O)(=O)C3CC3)CC2)ccc1OCC1=C(c2cccc(-n3ncc(C(=O)O)c3C(F)(F)F)n2)CCCC1` [Example 2-9, 1-(6-(2-((4-(1-(cyclopropylsulfonyl)piperidin-4-yl)-2-methylphenoxy)methyl)cyclohex-1-en-1-yl)pyridin-2-yl)-5-(trifluoromethyl)-1H-pyrazole-4-carboxylic acid] gave an EC50 of 1 nM. For the compound `CCNC(=O)N1CCC(c2ccc(OCC3=C(c4cccc(-n5ncc(C(=O)O)c5C(F)(F)F)n4)CCCC3)c(C)c2)CC1` [Example 2-12, 1-(6-(2-((4-(1-(ethylcarbamoyl)piperidin-4-yl)-2-methylphenoxy)methyl)cyclohex-1-en-1-yl)pyridin-2-yl)-5-(trifluoromethyl)-1H-pyrazole-4-carboxylic acid], the midpoint of the response, the EC50, lay at 14 nM.

Take `Cc1cc(C2CCN(C(=O)C3CC3)CC2)ccc1OCC1=C(c2cccc(-n3ncc(C(=O)O)c3C(F)(F)F)n2)CCCC1C` (single isomer, unassigned; (-)) [Example 15b, (−)-1-(6-(2-((4-(1-(Cyclopropanecarbonyl)piperidin-4-yl)-2-methylphenoxy)methyl)-3-methylcyclohex-1-en-1-yl)pyridin-2-yl)-5-(trifluoromethyl)-1H-pyrazole-4-carboxylic acid]: the concentration for a half-maximal effect (EC50) is 1 nM. Turning to `O=C(O)c1cnn(-c2cccc(C3=C(COc4ccc5c(c4)CCN(Cc4ccccn4)C5)CCCC3)n2)c1C(F)(F)F` [Example 8-2, 1-(6-(2-(((2-(pyridin-2-ylmethyl)-1,2,3,4-tetrahydroisoquinolin-6-yl)oxy)methyl)cyclohex-1-en-1-yl)pyridin-2-yl)-5-(trifluoromethyl)-1H-pyrazole-4-carboxylic acid], the EC50 was found to be 34 nM.

As for `Cc1cc(C2CCN(S(C)(=O)=O)CC2)ccc1OCC1=C(c2cccc(-n3ncc(C(=O)O)c3C(F)(F)F)n2)CCC1` [Example 24-4, 1-(6-(2-((2-Methyl-4-(1-(methylsulfonyl)piperidin-4-yl)phenoxy)methyl)cyclopent-1-en-1-yl)pyridin-2-yl)-5-(trifluoromethyl)-1H-pyrazole-4-carboxylic acid], the EC50 is 2.4 nM. `Cc1cc(C2CCN(CC3CC3)CC2)ccc1OCC1=C(c2cccc(-n3ncc(C(=O)O)c3C(F)(F)F)n2)CCCC1` [Example 6-3, 1-(6-(2-((4-(1-(Cyclopropylmethyl)piperidin-4-yl)-2-methylphenoxy)methyl)cyclohex-1-en-1-yl)pyridin-2-yl)-5-(trifluoromethyl)-1H-pyrazole-4-carboxylic acid] yielded an EC50 of 374 nM. The figure for `CC1CCCC(c2cccc(-n3ncc(C(=O)O)c3C(F)(F)F)n2)=C1COc1ccc2c(c1)CCN(Cc1ccccn1)C2` (racemic) [Example 29-1, (±)-1-(6-(3-Methyl-2-(((2-(pyridin-2-ylmethyl)-1,2,3,4-tetrahydroisoquinolin-6-yl)oxy)methyl)cyclohex-1-en-1-yl)pyridin-2-yl)-5-(trifluoromethyl)-1H-pyrazole-4-carboxylic acid] is 3.9 nM. Compound `CCc1cc(OCC2=C(c3cccc(-n4ncc(C(=O)O)c4C(F)(F)F)n3)CCC2C)ccc1C1CCN(C(=O)C2CC2)CC1` (single isomer, unassigned; (+)) [Example 22(b) (+), (+)-1-(6-(2-((4-(1-(cyclopropanecarbonyl)piperidin-4-yl)-3-ethylphenoxy)methyl)-3-methylcyclopent-1-en-1-yl)pyridin-2-yl)-5-(trifluoromethyl)-1H-pyrazole-4-carboxylic acid] displayed an EC50 of 1 nM. The compound `CCc1cc(OCC2=C(c3cccc(-n4ncc(C(=O)O)c4C)n3)CCCC2C)ccc1C1CCN(C(=O)[C@H](C)O)CC1` (single isomer, unassigned; diastereomer-1) [Example 19a] showed an EC50 of at most 0.5 nM. To `Cc1cc(C2CCN(C(=O)CN)CC2)ccc1OCC1=C(c2cccc(-n3ncc(C(=O)O)c3C(F)(F)F)n2)CCCC1` [Example 11, 1-(6-(2-((4-(1-(2-Aminoacetyl)piperidin-4-yl)-2-methylphenoxy)methyl)cyclohex-1-en-1-yl)pyridin-2-yl)-5-(trifluoromethyl)-1H-pyrazole-4-carboxylic acid] belongs 110 nM; to `Cc1cc(C2CCN(C(=O)C3CC3)CC2)ccc1NCC1=C(c2cccc(-n3ncc(C(=O)O)c3C(F)(F)F)n2)CCCC1` [Example 27-1, 1-(6-(2-(((4-(1-(Cyclopropanecarbonyl)piperidin-4-yl)-2-methylphenyl)amino)methyl)cyclohex-1-en-1-yl)pyridin-2-yl)-5-(trifluoromethyl)-1H-pyrazole-4-carboxylic acid], 2.4 nM; to `CCC(=O)N1CCC(c2ccc(OCC3=C(c4cccc(-n5ncc(C(=O)O)c5C(F)(F)F)n4)CCC3)c(C)c2)CC1` [Example 24-2, 1-(6-(2-((2-Methyl-4-(1-propionylpiperidin-4-yl)phenoxy)methyl)cyclopent-1-en-1-yl)pyridin-2-yl)-5-(trifluoromethyl)-1H-pyrazole-4-carboxylic acid], 2.4 nM. As to `Cc1cc(C2CCN(S(C)(=O)=O)CC2)ccc1OCC1=C(c2cccc(-n3ncc(C(=O)O)c3C(F)(F)F)n2)CCCC1` [Example 2-3, 1-(6-(2-((2-methyl-4-(1-(methylsulfonyl)piperidin-4-yl)phenoxy)methyl)cyclohex-1-en-1-yl)pyridin-2-yl)-5-(trifluoromethyl)-1H-pyrazole-4-carboxylic acid], a half-maximal response (EC50) required 1 nM. `Cc1cc(C2CCN(C(=O)C(C)C)CC2)ccc1OCC1=C(c2cccc(-n3ncc(C(=O)O)c3C(F)(F)F)n2)CCCC1` [Example 2-10, 1-(6-(2-((4-(1-isobutyrylpiperidin-4-yl)-2-methylphenoxy)methyl)cyclohex-1-en-1-yl)pyridin-2-yl)-5-(trifluoromethyl)-1H-pyrazole-4-carboxylic acid]: the concentration giving a half-maximal response (EC50) was at most 0.5 nM. To `CCc1cc(OCC2=C(c3cccc(-n4ncc(C(=O)O)c4CC)n3)CCCC2C)ccc1C1CCN(C(=O)[C@H](C)O)CC1` (single isomer, unassigned; diastereomer-2) [Example 18b] belongs 8.9 nM.

In turn, `CCC(=O)N1CCC(c2ccc(OCC3=C(c4cccc(-n5ncc(C(=O)O)c5C(F)(F)F)n4)CCCC3)c(C)c2)CC1` [Example 2-1, 1-(6-(2-((2-methyl-4-(1-propionylpiperidin-4-yl)phenoxy)methyl)cyclohex-1-en-1-yl)pyridin-2-yl)-5-(trifluoromethyl)-1H-pyrazole-4-carboxylic acid] displayed an EC50 of at most 0.5 nM. The figure for `Cc1cccc(CN2CCc3cc(OCC4=C(c5cccc(-n6ncc(C(=O)O)c6C(F)(F)F)n5)CCCC4)ccc3C2)n1` [Example 5, 1-(6-(2-(((2-((6-Methylpyridin-2-yl)methyl)-1,2,3,4-tetrahydroisoquinolin-6-yl)oxy)methyl)cyclohex-1-en-1-yl)pyridin-2-yl)-5-(trifluoromethyl)-1H-pyrazole-4-carboxylic acid] is 10 nM. `Cc1cc(C2CCN(C(=O)[C@@H](C)O)CC2)ccc1OCC1=C(c2cccc(-n3ncc(C(=O)O)c3C(F)(F)F)n2)CCCC1` [Example 4-1, (R)-1-(6-(2-((4-(1-(2-hydroxypropanoyl)piperidin-4-yl)-2-methylphenoxy)methyl)cyclohex-1-en-1-yl)pyridin-2-yl)-5-(trifluoromethyl)-1H-pyrazole-4-carboxylic acid] displayed an EC50 of 164 nM. With `Cc1cc(C2CCN(C(=O)C3CC3)CC2)ccc1OCC1=C(c2cccc(-n3ncc(C(=O)O)c3C(F)(F)F)n2)CCC1` [Example 21, 1-(6-(2-((4-(1-(Cyclopropanecarbonyl)piperidin-4-yl)-2-methylphenoxy)methyl)cyclopent-1-en-1-yl)pyridin-2-yl)-5-(trifluoromethyl)-1H-pyrazole-4-carboxylic acid], the response was half-maximal at 2.4 nM (EC50). This EC50 lies about 68-fold lower than the previous one. With `CCc1cc(OCC2=C(c3cccc(-n4ncc(C(=O)O)c4C(F)(F)F)n3)CCC2C)ccc1C1CCN(C(=O)C2CC2)CC1` (single isomer, unassigned; (-)) [Example 22(b) (−), (−)-1-(6-(2-((4-(1-(cyclopropanecarbonyl)piperidin-4-yl)-3-ethylphenoxy)methyl)-3-methylcyclopent-1-en-1-yl)pyridin-2-yl)-5-(trifluoromethyl)-1H-pyrazole-4-carboxylic acid], the midpoint of the response, the EC50, lay at 5.5 nM. The figure for `CCS(=O)(=O)N1CCC(c2ccc(OCC3=C(c4cccc(-n5ncc(C(=O)O)c5C(F)(F)F)n4)CCCC3)c(C)c2)CC1` [Example 2-8, 1-(6-(2-((4-(1-(ethylsulfonyl)piperidin-4-yl)-2-methylphenoxy)methyl)cyclohex-1-en-1-yl)pyridin-2-yl)-5-(trifluoromethyl)-1H-pyrazole-4-carboxylic acid] is at most 0.5 nM.
